# Assay results taken from patent publication US20250213587A1, “ITK INHIBITORS FOR INCREASING TH1 CELL ACTIVITY” (Corvus Pharmaceuticals, Inc., priority 2022, published 2025).
# Assays:
# [1] = target: Cys442Ala ITK (Homo sapiens, UniProt Q08881, C442A); assay: Inhibition of Cys442Ala ITK mutant; format: biochemical; conditions: similar conditions
# Description: Two biochemical assays of kinase activity were employed. […] In the Lanthascreen assay each kinase (1.0 nM) was incubated with compound for 120 minutes at 22° C. in a buffer composed of 50 mM HEPES (pH 7.5), 10 mM MgCl2, 1 mM EGTA, and 0.01% Brij 35. The kinase reaction was initiated by the addition of ATP (50 μM final) and fluorescein-poly-Glu-Tyr peptide (200 nM final). The reaction was quenched after 60 minutes at 22° C., and phospho-peptide product detected by the addition of EDTA (10 mM final) and terbium PY20 antibody (2 nM final). The phospho-peptide product was measured by time-resolved fluorescence resonance energy transfer (TR FRET) between the terbium of the antibody and fluorescein of the phospho-peptide using an EnVision plate reader (PerkinElmer, Waltham, MA) equipped to detect the TR-FRET signal (excitation 320 nm, dual emission at 495 nm and 520 nm). All reagents including recombinant human kinases, fluorescein-poly-Glu-Tyr peptide, terbium PY20 antibody, and kinase buffer A were purchased from Invitrogen.
# Inhibition of kinase activity was measured by construction of a concentration response curve of the inhibitor. […] The response reading was normalized according to equation 1 and plotted against the Log base 10 transformed values of the molar concentration of inhibitor. The IC50 value was obtained by fitting equation 2 to the data. […]
# [2] = tested on: human kinome; assay: Human kinome profiling at 1.0 μM; format: biochemical
# [3] = Glutathione reactivity assay; format: physicochemical; conditions: 37° C.
# Description: The reactivity of acrylamides with glutathione was determined by measuring the disappearance of starting material and appearance of the adduct with glutathione in HPLC-MS spectra as a function of time. All the stock solutions and solvents were bubbled with nitrogen and all reactions were run under nitrogen at 37° C. A 250 μL volume of 20 mM test compound in DMSO was mixed with 250 μL of 2.0 mM indoprofen (used as internal standard) in DMSO and 4.5 mL of 11.1 mM glutathione in 100 mM potassium phosphate buffer (pH 7.4). Each reaction contained 1 mM test compound, 0.1 mM indoprofen, and 10 mM glutathione in 100 mM potassium phosphate buffer and 10% DMSO. The reaction mixture was stirred at 37° C. for 5 hours and sampled for HPLC-MS analysis every hour. The reaction product, internal standard and starting materials were separated by liquid chromatography using an Agilent Eclipse XBD-C18 column (4.6×150 mm, 3.5 um) and quantified by UV absorption. The mobile phase consisted of solvent A (water) and solvent B (acetonitrile), employing a gradient of 10% to 95% solvent B over 10 min.
# [4] = tested on: S6 phosphorylation; assay: pS6 flow cytometry after CD3/28 crosslinking; format: cell-based; conditions: Homo sapiens, mean of three donors
# Description: PBMCs were pelleted (400×g at 4° C. for 5 minutes) and resuspended in RPMI+10% heat-inactivated fetal bovine serum (FBS) at 14.3×10^6 cells/mL; 70 μL (1×10^6 cells) were plated in a 96 well U bottom plate and incubated at 37° C. for 1 hour. […] CD3-biotin and CD28-biotin were prepared together at 10 μg/mL each, which is 10× the final concentration; 10 μL antibodies were added to the cells and incubated at 37° C. for 15 minutes. Avidin was prepared at 500 μg/mL, which is 10× the final concentration; 10 μL avidin were added to the cells and incubated at 37° C. for 5 minutes to induce TCR crosslinking. A total volume of 100 μL cells were transferred to 200 μL warm 2.4% paraformaldehyde (PFA) in deep well blocks. Pipetting was performed using a liquidator 96 to add reagents to the entire plate with uniform timing. Cells were fixed with PFA at 37° C. for 10 minutes. Cells were pelleted (1000× g for 5 minutes), and the plate was aspirated leaving approximately 100 μL residual volume. The plate was then vigorously vortexed for 10 seconds, and 1 mL −20° C. methanol was added to each well. Cells were stored at […] for approximately 1 month. […] Inhibition was measured by construction of a concentration response curve of the Log base 10 transformed values of the molar concentration of inhibitor. […]
# [5] = tested on: IFNγ production by CD4+ T cells; assay: T cell activation, IFNγ+CD4+ T cells; format: cell-based, human
# Description: Fresh PBMCs from healthy human donors were centrifuged and reconstituted at 0.312×10^6 cells/mL in RPMI 1640 medium+10% heat-inactivated FBS+1× penicillin streptomycin and 100,000 cells/well were distributed into 24 well tissue culture plate. Cells were incubated at 37° C. for 1 hour, followed by the addition of CPI 596 or vehicle. The cells were then incubated at 37° C. for 1 hour, followed by the addition of […] anti CD3 and anti CD28 (both eBioscience). Cells were incubated at 37° C. for 6 days, with supplemental media supplied on day 3. On Day 6, the cells were transferred to a 96 deep well plate, washed, and treated with 50 nM phorbol 12-myristate 13-acetate, 1 μg/mL ionomycin, and 1 μg/mL brefeldin A, and then incubated at 37° C. for 4 hours. The cells were then fixed and permeabilized using eBioscience Fox3/transcription factor staining buffer. Cells were treated with Fc block (BioLegend) and then stained with CD3 BV605, CD45RA PerCP-Cy5.5, Tbet PE, IFNγ AF488, IL-4 APC (BioLegend), CD4 PE-Cy7, cPARP AF700 (BD Biosciences), and CD8 Krome Orange (Beckman Coulter). For flow cytometry, 300,000 cells were acquired on Cytoflex (Beckman Coulter). Data were analyzed using Flowjo software. The percentage of CD4^+ T cells that were positive for IFNγ and IL 4 were reported.
# [6] = tested on: NK cells with anti-CD20 bound Jeko target cells; assay: NK-mediated ADCC; format: cell-based, human; conditions: 1 μM, 18 hours
# Description: FIGS. 9A-9B show selective Inhibition of ITK preserved NK-mediated ADCC. FIG. 9A: Lymphocyte subsets (5 donors/cell type) were purified from the peripheral blood of 22 healthy donors. The expression of ITK and RLK, relative to the house keeping gene IPO8, were determined by qPCR. FIG. 9B: Peripheral blood NK cells from 7 healthy donors were co-cultured at a 10:1 ratio with anti-CD20 bound target cells (B-cell lymphoma line Jeko) and with inhibitors for 18 hours. Cell lysis was detected by viability dye using flow cytometry. The % dead target cells in samples treated with DMSO were set as the maximum lysis (100%).
# NK cells express both ITK and RLK (FIG. 9A). […] Peripheral blood NK cells from 7 healthy donors were co-cultured with an anti-CD20 bound target B-cell line at a ratio of 10:1 for 18 hours in the presence of the inhibitors over a range of concentrations up to 1 μM. Cell lysis was detected by flow cytometry using viability dye staining.
# [7] = tested on: peripheral T cell lymphoma; assay: Anti-tumor activity in human clinical trials (T cell lymphoma); format: in vivo
# Source text: Each lane represents a patient with the length indicating time on treatment. A treatment cycle is 21 days and then the cycle is repeated until the patient experiences tumor progression or unacceptable toxicity.
# [8] = tested on: imiquimod-induced psoriasis; assay: Imiquimod-induced model of psoriasis; conditions: in vivo
# [9] = PTCL-NOS patient, within 8-15 days
# Cys442Ala ITK, sequence (Q08881 whole entry C442A): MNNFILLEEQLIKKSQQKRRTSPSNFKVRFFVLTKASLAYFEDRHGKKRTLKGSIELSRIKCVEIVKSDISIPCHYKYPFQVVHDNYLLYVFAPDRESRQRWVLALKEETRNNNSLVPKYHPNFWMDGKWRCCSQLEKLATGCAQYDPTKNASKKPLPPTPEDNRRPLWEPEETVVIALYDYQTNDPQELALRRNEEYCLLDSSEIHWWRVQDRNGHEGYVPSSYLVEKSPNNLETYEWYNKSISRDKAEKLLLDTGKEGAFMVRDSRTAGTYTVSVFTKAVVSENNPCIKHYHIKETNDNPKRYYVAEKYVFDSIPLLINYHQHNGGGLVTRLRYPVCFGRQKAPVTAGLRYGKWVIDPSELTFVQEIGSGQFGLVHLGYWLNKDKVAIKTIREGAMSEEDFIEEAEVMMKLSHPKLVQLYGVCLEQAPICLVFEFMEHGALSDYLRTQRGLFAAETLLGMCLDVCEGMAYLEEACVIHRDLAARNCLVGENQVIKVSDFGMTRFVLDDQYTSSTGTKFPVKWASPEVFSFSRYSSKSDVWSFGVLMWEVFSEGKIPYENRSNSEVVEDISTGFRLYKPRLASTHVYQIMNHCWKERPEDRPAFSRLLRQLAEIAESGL
smiles,measurement,setting,value
C=CC(=O)N1CCCN(C(=O)c2cc(Sc3cnc(NC(=O)C4CC4)s3)c(C)cc2OC)C[C@H]1C [CPI-818],change of IC50 at Cys442Ala ITK compared to wild-type,[1],> 100 fold
same,number of kinases inhibited ≥65%,[2],eight
same,stability of acrylamide in presence of glutathione,[3]; 3 h,minimal loss
same,loss in presence of glutathione,"[3]; physiological glutathione, 5 h",4%
same,IC50,[4],96 nM
same,effect on IFNγ production,"[5]; 1 μM, average across samples",19%
same,IFNγ-positivity,[5]; 10 μM,robustly inhibited
same,effect on percentage of IFNγ+CD4+ T cells,"[5]; up to 1 μM, average",< 20%
same,decrease of ADCC,[6],20%
same,dose with best anti-tumor response,"[7]; 100, 200, 400, 600 mg BID evaluated",best response occurred at the dose of 200 mg BID
same,duration of complete remission,"[7]; Example 2, 200 mg BID",25 months
same,response of patient with peripheral T-cell lymphoma NOS,"[7]; Example 2, 200 mg BID",complete remission
same,response of patient with PTCL-NOS,"[7]; FIG. 23, cycle 17, after 1 year of treatment",complete response
same,duration of complete response,[7]; FIG. 23 patient,19 months
same,platelets (PLT) and lactate dehydrogenase (LDH),[7]; [9],improvement
same,subcutaneous (SQ) tumor,[7]; [9],dramatic reduction
same,dermal inflammation,[8],significantly reduced
same,skin thickening,[8],significantly reduced
